# Values of other authors, collected in patent publication US6638954B2, “Δ2-1,2,3-TRIAZOLINE ANTICONVULSANTS AND THEIR ACTIVE METABOLITE ANALOGUES, THE AMINOALKYLPYRIDINES, ARE EXCITATORY AMINO ACID ANTAGONISTS AND ANTIISCHEMIC AGENTS, USEFUL IN THE TREATMENT OF CEREBRAL ISCHEMIA RESULTING FROM STROKE” (K and K Biosciences, Inc., priority 2000, dated 2003).
# Columns and labels:
# amygdala-kindled rats = conditions: non-sedative, non-neurotoxic doses
# entorhinal-kindled rats = conditions: non-sedative, non-neurotoxic doses
# [1] = test system: N-methyl D-aspartate (NMDA)-induced seizures; conditions: mouse
substance,measurement,setting,value
"1-(p-Chlorophenyl)-5-(4-pyridyl)-Δ^2-1,2,3-triazoline [Table IV (2)]","ED50, protection against after-discharge seizures and generalized convulsions",amygdala-kindled rats,215 ± 61 mg/kg
same,"ED50, protection against after-discharge seizures and generalized convulsions",entorhinal-kindled rats,423 ± 45 mg/kg
same,Protection against NMDA-induced seizures/convulsions,[1],complete protection
